Data published in patent publication US20140213604A1, “PROTEIN KINASE C AS A TARGET FOR THE TREATMENT OF RESPIRATORY SYNCYTIAL VIRUS” (priority 2002, published 2014).
Where two headings read alike, the source gives them in different places. Where a SMILES comes first, the peptide text is derived from it. The star is where a group is joined. Myristoyl = CCCCCCCCCCCCCC(=O)*

Tests used:
[1] = tested on: RSV infection of NHBE cells; assay: RSV infection of NHBE cells treated with signaling inhibitors, FITC anti-RSV mab staining and cell counting; format: cell-based, respiratory syncytial virus (RSV); conditions: inhibitor 2 h before and 48 h after RSV, AG 490 50 μM, PD98059 80 μM, RO318220 3 μM, Wortmannin 300 nM
Experimental: NHBE cells were treated with different inhibitors for 2 hours at concentration as: AG 490 (50 μM), PD98059 (80 μM), RO318220 (3 μM), and Wortmannin (300 nM). DMSO was used as a mock control. The inhibitors were removed and the cells were infected with RSV for 2 hours. After the RSV was removed, the growth medium with the same concentration of inhibitors was added to the cells for 48 hours. The cells were rinsed with PBS prior to staining with FITC-labeled Anti-RSV monoclonal antibody (mab) (CHEMICON, Temecula, Calif.). The total cells and RSV positive cells were counted randomly from 15 to 20 different spots.
To determine if different signaling molecules related to the ERK pathway are required for a successful RSV infection, primary NHBE cells were exposed to various inhibitors previously to being infected with a sucrose-purified RSV preparation. […] Also, other PKC isoforms are activated later during the infection, which could potentially play a role in the late phase of ERK activation (Monick, M. et al., J Immunol, 166(4):2681-2687, 2001).

[2] = tested on: RSV infection of NHBE cells; assay: RSV infection of NHBE cells pre-treated with PKC inhibitors, single cell immunofluorescence assay; format: cell-based, respiratory syncytial virus (RSV); conditions: for number of infected cells, dose dependence: inhibitor 30 min before infection; for IC50: 16 h, read-out: concentration at which 50% inhibition of infected cells was reached

Row | Molecule | number of RSV infected cells [1] | number of infected cells, dose dependence ([2]; NHBE cells, RSV 1 MOI) | other results
1 | N#C/C(=C/c1ccc(O)c(O)c1)C(=O)NCc1ccccc1 [AG490] | significant reduction | – | number of RSV infected cells ([1]; listed as AG 490): substantially decrease
2 | COc1ccc2c(c[n+](C)c3c4cc5c(cc4ccc23)OCO5)c1OC [Chelerythrine] | – | reduced in a dose-dependent manner | IC50 ([2]; human respiratory syncytial virus, NHBE): 7.5 µM
3 | CCCCCCCCCCCCCC(=O)N[C@@H](Cc1ccccc1)C(=O)N[C@@H](C)C(=O)N[C@@H](CCCNC(=N)N)C(=O)N[C@@H](CCCCN)C(=O)NCC(=O)N[C@@H](C)C(=O)N[C@@H](CC(C)C)C(=O)N[C@@H](CCCNC(=N)N)C(=O)N[C@@H](CCC(N)=O)C(N)=O [N-Myr-Phe-Ala-Arg-Lys-Gly-Ala-Leu-Arg-Gln] (Myristoyl-FARKGALRQ-NH2; N-terminus and C-terminus assumed) | – | – | solubility in water: soluble in water
4 | COc1cccc(-c2cc(=O)c3ccccc3o2)c1N [PD98059] | significant reduction | – | –
5 | Cn1cc(C2=C(c3cn(CCCSC(=N)N)c4ccccc34)C(=O)NC2=O)c2ccccc21 [Ro318220] | significant reduction | – | number of RSV infected cells ([1]; listed as RO318220): substantially decrease
6 | Calphostin C | – | reduced in a dose-dependent manner | IC50 ([2]; NHBE cells, RSV 1 MOI): 0.375 µM
